Calls of active or inactive are those of the source. The calls are words filed in the database; no cut-off is given here.
Key:
[1] = Inhibition of HCV NS3 NTPase/helicase domain expressed in Escherichia coli BL21 using dsDNA as substrate assessed as strand separation of [32P]-labeled oligonucleotides after 30 mins by SDS-gel electrophoresis; parameters: species or system Hepacivirus hominis
[2] = Inhibition of HCV ATPase activity of NS3 NTPase/helicase domain expressed in Escherichia coli BL21 after 30 mins by thin layer chromatography in presence of [gamma-32P]ATP; parameters: species or system Hepacivirus hominis
[3] = Selectivity index, ratio of CC50 for human Huh7ET cells to EC50 for HCV infected in human Huh7ET cells; parameters: species or system Huh-7
[4] = system: Human immunodeficiency virus 1; assay: Antiviral activity against HIV1; type: functional, organism-based
[5] = Inhibition of Dengue virus helicase
Hepacivirus hominis = assay: Inhibition of HCV NS5B RNA dependent RNA polymerase at 100 uM
[6] = Inhibition of HCV NS3 NTPase/helicase domain expressed in Escherichia coli BL21 using dsRNA as substrate assessed as strand separation of [32P]-labeled oligonucleotides after 30 mins by SDS-gel electrophoresis; parameters: species or system Hepacivirus hominis
[7] = Cytotoxicity against human Huh7ET cells by neutral red assay; type: cell-based, Huh-7
Hepatitis C virus [8] = assay: Antiviral activity against HCV infected in human Huh7ET cells assessed as inhibition of viral replication by luciferase reporter gene assay/RNA blot hybridization analysis; type: functional, organism-based, Hepacivirus hominis; details: Huh-7
[9] = Binding affinity to double stranded RNA assessed as effect on Eco-RI-digested pT7-7 plasmid mobilization at 20 to 500 uM after 60 mins by agarose gel mobility assay
[10] = Binding affinity to double stranded DNA assessed as effect on Eco-RI-digested pT7-7 plasmid mobilization at 20 to 500 uM after 60 mins by agarose gel mobility assay
[11] = Selectivity index, ratio of CC50 for human Huh7ET cells by luciferase reporter gene assay to EC50 for HCV infected in human Huh7ET cells by luciferase reporter gene assay; parameters: species or system Huh-7
Hepatitis C virus [12] = assay: Antiviral activity against HCV infected in human Huh7ET cells assessed as inhibition of viral replication by luciferase reporter gene assay; type: functional, organism-based, Hepacivirus hominis; details: Huh-7
[13] = Cytotoxicity against human Huh7ET cells by luciferase reporter gene assay; type: cell-based; details: huh-7

Compound: O=C(O)c1cccc2oc(-c3ccccc3O)nc12
- IC50 [1]: > 1800 µM
- IC50 [2]: > 1200 µM
- Ratio CC50/EC50 [3]: 6.6
- Activity [4]: inactive
- IC50 [5]: > 700 µM
- inhibition (Hepacivirus hominis): < 30%
- IC50 [6]: > 1800 µM
- CC50 ([7]; huh-7): 3.5 µM
- EC50 (Hepatitis C virus [8]): 0.53 µM

Compound: COC(=O)c1cccc2oc(-c3cccc4oc(-c5ccccc5O)nc34)nc12
- IC50 [1]: 380 µM
- IC50 [2]: > 1200 µM
- Ratio CC50/EC50 [3]: 22
- IC50 [5]: > 700 µM
- inhibition (Hepacivirus hominis): < 30%
- IC50 [6]: > 1200 µM
- CC50 ([7]; huh-7): 17 µM
- EC50 (Hepatitis C virus [8]): 0.77 µM

Compound: COC(=O)c1cccc2oc(-c3ccc4c(OCc5ccccc5)cccc4c3O)nc12
- IC50 [1]: 3.8 µM
- Activity [9]: inactive
- IC50 [2]: > 1200 µM
- Ratio CC50/EC50 [3]: >10
- Activity [4]: inactive
- IC50 [5]: > 700 µM
- inhibition (Hepacivirus hominis): < 30%
- IC50 [6]: 20 µM
- CC50 ([7]; Huh7ET cells): > 20 µM
- Activity [10]: inactive
- EC50 (Hepatitis C virus [8]): 2.1 µM

Compound: COC(=O)c1cccc2oc(-c3ccc4ccc(OCc5ccccc5)cc4c3O)nc12
- IC50 [1]: 2.6 µM
- Activity [9]: inactive
- IC50 [2]: > 1200 µM
- Ratio CC50/EC50 [3]: >37
- Activity [4]: inactive
- IC50 [5]: > 700 µM
- inhibition (Hepacivirus hominis): < 30%
- IC50 [6]: 20 µM
- CC50 ([7]; Huh7ET cells): > 20 µM
- Activity [10]: inactive
- EC50 (Hepatitis C virus [8]): 0.54 µM

Compound: COC(=O)c1cccc2oc(-c3ccc4ccccc4c3O)nc12
- IC50 [1]: 540 µM
- IC50 [2]: > 1200 µM
- Ratio CC50/EC50 [3]: 4.7
- Activity [4]: inactive
- IC50 [5]: > 700 µM
- inhibition (Hepacivirus hominis): < 30%
- IC50 [6]: 590 µM
- CC50 ([7]; huh-7): 2.5 µM
- EC50 (Hepatitis C virus [8]): 0.53 µM

Compound: CNC(=O)c1cccc2oc(-c3ccccc3O)nc12
- IC50 [1]: > 1800 µM
- IC50 [2]: > 1200 µM
- Ratio CC50/EC50 [11]: 4.5
- Activity [4]: inactive
- EC50 (Hepatitis C virus [12]): 1.4 µM
- IC50 [5]: > 700 µM
- CC50 [13]: 6.3 µM
- inhibition (Hepacivirus hominis): < 30%
- IC50 [6]: > 1800 µM

Compound: COC(=O)c1cccc2oc(-c3ccccc3O)nc12
- IC50 [1]: > 1800 µM
- IC50 [2]: > 1200 µM
- Ratio CC50/EC50 [3]: 11
- Activity [4]: inactive
- IC50 [5]: > 700 µM
- inhibition (Hepacivirus hominis): < 30%
- IC50 [6]: > 1800 µM
- CC50 ([7]; huh-7): 5.4 µM
- EC50 (Hepatitis C virus [8]): 0.5 µM

Source: ChEMBL document CHEMBL3102775, “UK-1 and structural analogs are potent inhibitors of hepatitis C virus replication” (Bioorg Med Chem Lett, 2014)
